We go through 3 molecules from patent US12433510B2, “Methods and systems for improved collection of interstitial fluid” (Georgia Tech Research Corporation, priority 2017, dated 2025).

Like-named read-outs stand apart in the source and are kept apart here.

Data set [1] deals with plasma proteins.
The nature of data set [2]: clinical. The conditions noted are these: human, in vivo.
The conditions of data set [3]: human, in vivo.
A short description of data set [4]: in vivo. The conditions noted are these: female, Wistar, rat, 1 mg/kg; for AUC: mean ± SD, n = 6 rats.
The mark [5] stands for this setting: iv, ISF, 1 mg/kg bolus intravenous.
The mark [6] stands for this setting: iv, Serum, 1 mg/kg bolus intravenous.

Consider `CCN=c1cc2oc3cc(NCC)c(C)cc3c(-c3ccccc3C(=O)OCC)c-2cc1C.Cl` [R6G, rhodamine 6G], for which, in data set [1], the “R6G concentration in protein-free serum samples” value was 0.05 ± 0.03 µM, the “R6G concentration in serum prior to filtration” value turned out to be 9.6 ± 4.2 µM and the “binding to plasma proteins” value is given as “strongly binds to plasma proteins”.

As usually defined, the Cmax is the peak of the concentration-time curve. The AUC(0-t) is exposure summed from dosing to a finite time, without extrapolation to infinity. By clearance is commonly meant a measure of how efficiently the substance is removed, as volume per time. Low readings indicate inefficient removal, high ones efficient removal. Broadly, the half-life is how long it takes for the measured level to halve. High values mean slow decline, low ones rapid decline. Turning to `Cn1c(=O)c2c(ncn2C)n(C)c1=O` [caffeine], the peak level in data set [2] (43 mg, Cmax) (Cmax) was 1060 ng/mL. This molecule also yielded an AUC(0-t) in data set [2] (AUC(0-8 h)) of 84 ng·h/mL. The same molecule had a clearance in data set [2] (CL) of 68.3 mL/min. In addition, the half-life in data set [2] (t1/2) was 564 min. In data set [3], this molecule yielded a CL of 4.7 L/h and a t1/2 of 450 min. The molecule also registered a Cmax in data set [3] (43 mg) of 1030 ng/mL.

One may read the Tmax as the time at which the peak concentration occurs. What is called Kp is tissue or fluid exposure divided by exposure in the circulation. For orientation: AUC means the area under the concentration-time curve, a measure of exposure. As to `CN[C@H](CC(C)C)C(=O)N[C@H]1C(=O)N[C@@H](CC(N)=O)C(=O)N[C@H]2C(=O)N[C@H]3C(=O)N[C@H](C(=O)N[C@H](C(=O)O)c4cc(O)cc(O)c4-c4cc3ccc4O)[C@H](O)c3ccc(c(Cl)c3)Oc3cc2cc(c3O[C@@H]2O[C@H](CO)[C@@H](O)[C@H](O)[C@H]2O[C@H]2C[C@](C)(N)[C@H](O)[C@H](C)O2)Oc2ccc(cc2Cl)[C@H]1O` [vancomycin], under “1 mg/kg bolus intravenous”, the “Tmax Ratio (ISF:serum)” value worked out at 2.7 ± 1.6. The “slope of linear correlation of paired ISF and serum drug levels” value (R2=0.40) was determined as 0.75±0.06. Moreover, the Tmax in data set [4] (delay in time to peak concentration (Tmax) in ISF compared to serum) was approximately 17 min; in data set [4] (iv, Tmax, ISF, 1 mg/kg bolus intravenous) it was 26.6 min; in data set [4] (iv, Tmax, Serum, 1 mg/kg bolus intravenous), 10 min. In addition, the partition ratio (Kp) in data set [4] (iv, AUC Ratio (ISF:serum), 1 mg/kg bolus intravenous) turned out to be 1.3 ± 0.2; in data set [4] (iv, Cmax Ratio (ISF:serum), 1 mg/kg bolus intravenous), 0.9 ± 0.2. The AUC was 2300 ng·h/mL in data set [4] (setting [5]) and 1770 ng·h/mL in data set [4] (setting [6]). In addition, the Cmax was 2500 ± 1000 ng/mL in data set [4] (setting [5]) and 2600 ± 600 ng/mL in data set [4] (setting [6]).
